According to patent US7230033B2, “Pest control compositions and methods for their use” (United States of America as represented by the Secretary of …, priority 2000, dated 2007):
In brackets after ≈: the same amount, converted by molar mass. Read-outs that look alike come from different tables or passages of the source. Marks after values point to notes of the source that are not given here.

How the values were obtained:
[1] = tested on: Ae. aegypti adults; experiment: Adult mosquito bottle bioassay; assay type: in vivo, Aedes aegypti; conditions: for Slope: probit
Method: (§1) Adult mosquitoes were tested using the bottle bioassay method of Brogden and McAllister (J. Am. Mosq. Control Assoc., 14:159–64, 1998) with minor modifications. Natural product extracts were two-fold serially diluted for a total of 8 concentrations ranging from 0.002% to 0.25% in 1.5 ml of acetone. Individual dilutions were added to 250 ml Wheaton glass bottles and capped. Bottles were manipulated to evenly coat all inner surfaces. The caps were removed and bottles were allowed to air-dry overnight. Once bottles were completely dry, 10–50 (in some tests 25–50) adult mosquitoes were aspirated into the bottles. Mosquitoes were held in the bottles for 24 h at 23° C. and 85% RH. Morbidity and mortality were recorded at 15, 30, 45, and 60 min and 24 hour intervals. One bottle for each replicate was treated with acetone only and served as a control. The dose-mortality data was evaluated with probit analysis, using the LdP Line software, to determine LC50 and LC90 values.
Carvacrol was combined with compound 7, 9, or 10 at a 1:1 ratio (7.5 μl of carvacrol:7.5 μl of compound 7, 9, or 10 was added to 2,985 μl of acetone for a 0.5% solution, from which serial dilutions were made), and tested as previously described against nymphal ticks and adult and larval mosquitoes.

[2] = tested on: I. scapularis nymphs; experiment: Tick bioassay, treated 2-dram vials, probit analysis; assay type: in vivo, Ixodes scapularis; conditions: for Slope / LC90: 24 h exposure; for Slope: probit; for LC90: NE = not effective at concentrations tested
Description: A control treated with acetone only was run with each series.
For each time point, if ticks and fleas were incapable of movement, maintaining normal posture, leg coordination, ability to right themselves, or any signs of life, they were considered moribund or dead.

[3] = tested on: Ixodes scapularis nymphal ticks; experiment: Tick repellency bioassay; assay type: in vivo
Description: One-hundred (100) μl of test compound was pipetted onto a cotton-tipped applicator mounted to the bottom center of a 1 dram glass shell vial using non-toxic modeling clay. A total of 8 concentrations were screened with doses ranging from 0.04–5.0%. Applicators treated with acetone only served as controls. A line was drawn around the perimeter of the vial immediate to the base of the treated cotton portion of the applicator. The area above the line was designated the “repellent zone”. The vial was allowed to air-dry 1 h before a single tick was introduced. Vials were covered with a single piece of mesh and fitted with a hollowed-out plastic cap to cover the opening of the vial; this prevented the tick from escaping but allowed for air exchange. Vials were breathed upon by investigators at 1 min intervals and a hand was placed over the test vials to provide stimuli for ticks to pass into the repellent zone. […] If the tick crossed over and remained in the “repellent zone” for ≧5 sec, the tick was deemed non-repelled by the test compound. Each test was replicated 10 times using a new tick for each test. Repellent activity was determined at 1, 2, 3, and 4 h after treatment. Probit analysis was used to determine repellent efficacy (RD50 and RD95).

[4] = tested on: X. cheopis adults; experiment: Flea bioassay, treated 2-dram vials, probit analysis; assay type: in vivo, Xenopsylla cheopis; conditions: 24 h exposure; for Slope: probit
Method: Med. […] A control treated with acetone only was run with each series. Tick and flea susceptibility was evaluated using a modification of the disposable pipette method of Barnard et al. (J. Econ. Entomol., 74:466-69, 1981) and Maupin and […]. Med. […] The inner surface of 2-dram friction cap vials were treated with the compound/acetone solution, or acetone only as a control, and left to air-dry overnight (see also, […] et al., J. Med. […] Three to 4 holes were made in the plastic cap to allow for air exchange. Nymphal ticks and adult fleas were then placed directly into the vials using forceps. […] For each time point, if ticks and fleas were incapable of movement, maintaining normal posture, leg coordination, ability to right themselves, or any signs of life, they were considered moribund or dead.

[5] = tested on: Xenopsylla cheopis adults; experiment: Residual activity, aged treated vials, fleas; assay type: in vivo
Method: (§2) Briefly, groups of 10 nymphal I. scapularis and X. cheopis fleas were used in all tests (more than a total of 5,240 nymphs and 4,860 fleas were exposed to the compounds). The inner surface of 2-dram friction cap vials were treated with the compound/acetone solution, or acetone only as a control, and left to air-dry overnight (see also, Panella et al., J. Med. Entomol., 42(3):352-358, 2005. Three to 4 holes were made in the plastic cap to allow for air exchange. Nymphal ticks and adult fleas were then placed directly into the vials using forceps. Vials containing ticks or fleas were placed in desiccators for 24 h at 21° C. and 90% RH. Morbidity and mortality was recorded at 1, 2, 4, 8, and 24 h after initial exposure.

[6] = tested on: ticks, fleas, and mosquitoes; experiment: Residual activity, general statements (Examples 9, 17); assay type: in vivo
[7] = tested on: Ixodes scapularis nymphs; experiment: Residual activity, aged treated vials, ticks; assay type: in vivo
Method: as §2

[8] = tested on: Aedes aegypti adults; experiment: Residual activity, aged treated bottles, mosquitoes; assay type: in vivo
Method: as §1

[9] = tested on: fourth-instar Aedes aegypti larvae; experiment: Larval mosquito bioassay; assay type: in vivo; conditions: Aedes aegypti larval mosquitoes, concentration of the 1 ml added to 150 ml water
Method: Individual groups of 10 fourth-instar Aedes aegypti larvae were contained in 150 ml of water and exposed to […] of essential oils prepared by 2-fold serial dilutions ranging from 0.06%–5.0% in 1 ml of acetone. A control group of larvae were exposed to 1 ml of acetone only.
It is important to note that larval mosquitoes are tested in their natural environment, i.e., in water. The particular assays used herein involved groups of 10 larval mosquitoes in 150 ml of water. The weight percentages reported for lethal concentration for larval mosquitoes are the weight percentages added to the 150 ml water (as opposed to the final percentage of the tested compound(s) in the 150 ml water). As one of skill in the art will appreciate, test compound(s) added to a volume of water (such as, 150 ml) can be dramatically diluted depending upon the water solubility of the tested compound. […] If the tested compound is an oil (such as, carvacrol, nootkatone, or 13-hydroxy-valencene), it most likely floats on the surface of the water.

[10] = 24 h exposure, NE = not effective at concentrations tested
[11] = 2 weeks after treatment, NE = not effective
[12] = Aedes aegypti adult mosquitoes, alone, or 1:1 with carvacrol (in parenthesis)
[13] = Ixodes scapularis nymphal ticks, alone, or 1:1 with carvacrol (in parenthesis)
[14] = Ixodes scapularis nymphal ticks, alone, or 1:1 with carvacrol (in parenthesis), listed as carvacrol
[15] = 1 h after compound applied to applicator
[16] = 4 h after compound applied to applicator

## C=C(C)C1CCC23OC2C(=O)C[C@@H](C)[C@]3(C)C1 (stereo partly shown) [Compound 17, nootkatone-1,10-epoxide]
[1]; 24 h exposure
  Slope: 1.346
[2]
  Slope: 2.883
[3]; 1 hr, combinations 1:1 by weight
  RD50: 3×10^−1 % (w/v)
[3]; 4 hr, combinations 1:1 by weight
  RD50: 0.135 % (w/v)
[4]
  Slope: 2.326

## C=C(C)[C@@H]1CCC2=CC(=O)C[C@@H](C)[C@]2(C)C1 [Compound 8, Nootkatone]
[1]; [10]
  LC90: 0.0087 percent concentration, wt:vol
[1]; 24 h exposure
  Slope: 4.635
[1]; Aedes aegypti, 24 h exposure, NE = not effective at concentrations tested, read-out: LC50
  LC50: 46 µg/mL (≈ 211 µM)
[2]
  LC90: 0.015 percent concentration, wt:vol
  Slope: 3.211
[4]; NE = not effective at concentrations tested
  LC90: 0.008 percent concentration, wt:vol
[4]
  Slope: 2.949
[5]; 1 week after treatment
  Slope, residual activity: 3.107
[5]; 1 week after treatment, NE = not effective
  LC90, residual activity: 0.053 percent concentration, wt:vol
[5]; 2 weeks after treatment
  LC90, residual activity: 0.081 percent concentration, wt:vol
  Slope, residual activity: 1.931
[5]; 4 weeks after treatment
  Slope, residual activity: 1.95
[6]; ticks
  residual activity: considerable biological activity through the four week time period
[7]; 1 week after treatment
  Slope, residual activity: 2.871
[7]; 2 weeks after treatment
  Slope, residual activity: 2.727
[7]; [11]
  LC90, residual activity: 0.056 percent concentration, wt:vol
[7]; 4 weeks after treatment
  Slope, residual activity: 2.871
[8]; 1 week after treatment
  Slope, residual activity: 3.858
[8]; 2 weeks after treatment
  Slope, residual activity: 4.953
[8]; [11]
  LC90, residual activity: 0.012 percent concentration, wt:vol
[8]; 4 weeks after treatment
  Slope, residual activity: 7.772

## Cc1ccc(C(C)C)cc1O [Compound 4, Carvacrol]
[1]; [10]
  LC50: 0.0051 percent concentration, wt:vol
[1]; 24 h exposure
  Slope: 2.908
[1]; [12]
  LC50 (15 min): 0.0057^b % (wt:vol)
  LC50 (24 h): 0.0051 % (wt:vol)
  LC90 (15 min): 0.017 % (wt:vol)
  LC90 (24 h): 0.014 % (wt:vol)
[1]; Aedes aegypti adult mosquitoes, alone, or 1:1 with carvacrol (in parenthesis), listed as carvacrol
  LC50 (15 min): 0.0057 % (wt:vol)
[9]
  LC50 (1 h): 3.853^b % (wt:vol)
  LC50 (24 h): 0.988 % (wt:vol)
  LC90 (1 hr): 10.478 % (wt:vol)
  LC90 (24 h): 1.411 % (wt:vol)
[9]; listed as carvacrol
  LC50 (1 h): 3.853 % (wt:vol)
  LC50 (24 h): 1.411 % (wt:vol)
[2]
  LC90: 0.014 percent concentration, wt:vol
  Slope: 3.906
[2]; [13]
  LC50 (1 h): 0.019^b % (wt:vol)
  LC50 (24 h): 0.0068 % (wt:vol)
  LC90 (1 hr): 0.071 % (wt:vol)
  LC90 (24 h): 0.014 % (wt:vol)
[2]; [14]
  LC50 (1 h): 0.019 % (wt:vol)
  LC50 (24 h): about 0.0068 % (wt:vol)
[3]; 1 h
  Slope (±SEM): 1.506 (±0.355)
[3]; [15]
  RD50: 0.088 % (wt:vol)
  RD95: 1.09 % (wt:vol)
[3]; 4 h
  Slope (±SEM): 2.907 (±0.755)
[3]; [16]
  RD50: 0.077 % (wt:vol)
  RD95: 0.283 % (wt:vol)
[3]; at 1 h
  more effective than Deet: 1.9 fold
[3]; at 4 h
  more effective than Deet: 46 fold
[4]
  Slope: 3.413
[6]
  residual activity: little-to-no activity beyond 24 h
[7]; nymphal I. scapularis
  residual activity: lacks any residual activity beyond about 1 week
